Where “and” joins values, the source holds several entries; their conditions need not be identical. Equal entries are not always repeated.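 Interpolation was linear, between the two tested concentrations surrounding the appropriate level; five concentrations were tested over 48 hours in 96-well plates. GI50 = concentration required for 50% inhibition of growth. At the TGI there is no net growth.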
Columns and labels:
Experiment in all cases: DTP human tumour cell line panel, 48 h
786-0 renal = test system: 786-0 renal
CAKI-1 renal = test system: CAKI-1 renal
DU-145 prostate = test system: DU-145 prostate
HL-60(TB) leukemia = test system: HL-60(TB) leukemia
NCI-H226 lung = test system: NCI-H226 lung
OVCAR-3 ovarian = test system: OVCAR-3 ovarian
OVCAR-4 ovarian = test system: OVCAR-4 ovarian
PC-3 prostate = test system: PC-3 prostate
SNB-19 CNS = test system: SNB-19 CNS
UO-31 renal = test system: UO-31 renal

| SMILES | GI50 (786-0 renal) | TGI (786-0 renal) [µM] | GI50 (CAKI-1 renal) [µM] | TGI (CAKI-1 renal) [µM] | GI50 (DU-145 prostate) | TGI (DU-145 prostate) | GI50 (HL-60(TB) leukemia) | TGI (HL-60(TB) leukemia) | GI50 (NCI-H226 lung) [µM] | TGI (NCI-H226 lung) [µM] | GI50 (OVCAR-3 ovarian) | TGI (OVCAR-3 ovarian) [µM] | GI50 (OVCAR-4 ovarian) | TGI (OVCAR-4 ovarian) [µM] | GI50 (PC-3 prostate) | TGI (PC-3 prostate) [µM] | GI50 (SNB-19 CNS) | TGI (SNB-19 CNS) [µM] | GI50 (UO-31 renal) | TGI (UO-31 renal) [µM] |
| --- | --- | --- | --- | --- | --- | --- | --- | --- | --- | --- | --- | --- | --- | --- | --- | --- | --- | --- | --- | --- |
| C[C@@H](NC(=O)Cc1cc(F)cc(F)c1)C(=O)N[C@@]1(C)N=C(c2ccccc2)c2ccccc2N(C)C1=O | > 100 µM | > 100 | 11.7 | > 56.8 | 30.2 µM | > 100 µM | 10.6 µM | > 55.4 µM | 24 | 71.9 | 30 µM | > 100 | > 100 µM | > 100 | 25.6 µM | > 100 | > 100 µM | > 100 | 30.5 µM | > 100 |
| CCN(CC)CCC(=O)Nc1ccc(Cn2nnc3c2C(=O)c2nnn(Cc4ccc(NC(=O)CCN(CC)CC)cc4)c2C3=O)cc1 | 8.97 µM | > 72.3 | > 71.1 | > 100 | 1.05 µM | 2.25 µM | 0.228 µM | 0.628 µM | 1.51 | 3.46 | 0.265 µM | 0.778 | 0.133 µM | 0.263 | 1.98 µM | 6.87 | 0.186 µM | 0.373 | > 41.1 µM | > 61.8 |
| CO[C@H]1C=C[C@]23c4cc5c(cc4CN(CC2O)[C@@H]3C1)OCO5 (stereo partly drawn) | – | 16.5 | – | > 100 | – | 7.62 µM | – | 0.32 µM | – | 61.3 | – | 22.3 | – | 11.3 | – | 18.6 | – | 40.9 | – | 8.47 |
| COc1ccc2c(c1O)[C@@]13C=C(O)C(=O)C=C1[C@@H](C2)N(C)CC3 | – | > 100 | – | > 100 | – | > 100 µM | – | > 100 µM | – | > 100 | – | > 100 | – | > 100 | – | > 100 | – | > 100 | – | > 100 |
| CC1Cc2c(N(C)C)ncnc2N(C)c2ccc(Cl)cc21 (stereo not drawn) | 8.26 µM | 29.3 | 3.12 | > 100 | 5.49 µM | > 100 µM | 2.81 µM | 15.8 µM | 11 | 57.8 | 2.51 µM | 8.88 | 9.76 µM | > 100 | 3.41 µM | 81.6 | 5.81 µM | > 100 | 4.4 µM | 72.4 |
| Cn1c(=O)n(-c2ccc(C(C)(C)C#N)cc2)c2c3cc(-c4cnc5ccccc5c4)ccc3ncc21 | < 0.0118 µM and 0.00542 µM and < 0.01 µM | – | – | 0.0401 | < 0.01 µM and 0.00575 µM | 33.8 µM and > 10 µM and > 100 µM | 0.0701 µM and 0.0705 µM and 0.0783 µM | 2.4 µM and > 5.01 µM | < 0.001 | – | < 0.01 µM and 0.00609 µM and 0.0101 µM | – | 0.0162 µM and 0.00409 µM and 0.01 µM | – | < 0.01 µM and 0.0063 µM | > 100 | 0.012 µM and 0.00605 µM and 0.0102 µM | > 100 | < 0.01 µM and 0.00361 µM | 0.0749 |
| O=C1OC(c2ccc(O)cc2)(c2ccc(O)cc2)c2cccc3cccc1c23 | 20.2 µM | 41.8 | 18.1 | 44.6 | 17.2 µM | 31.6 µM | 18 µM | 45.5 µM | 17.6 | 44.7 | 3.53 µM | 19.9 | 0.18 µM | 17.4 | 11.5 µM | 29 | 16.8 µM | 34.5 | 12.5 µM | 28.9 |
| Cc1ccc(NCSc2ccc(Cl)cc2)cc1 | 6.53 µM | > 100 | 5.51 | > 100 | > 100 µM | > 100 µM | 2.45 µM | > 100 µM | 44.7 | > 100 | 9.22 µM | > 100 | 5.06 µM | > 100 | 10.2 µM | > 100 | 46.9 µM | > 100 | 1.65 µM | 30.8 |
| CCCC/C(=N\N=C(N)N)c1ccc(F)cc1 | 3.93 µM | 16.2 | 3.44 | 15.1 | 3.89 µM | 14.7 µM | 2.29 µM | 6.09 µM | 2.78 | 13.3 | 2.9 µM | 9.5 | 5.27 µM | 20 | 2.85 µM | 14.3 | 2.64 µM | 13.8 | 5.28 µM | 20.1 |
| COC(=O)c1cc(Nc2ccc(O)c3c2C(=O)c2c([N+](=O)[O-])ccc(O)c2C3=O)cc(C(=O)OC)c1 | 30.6 µM | > 100 | 77.1 | > 100 | 1.75 µM | 3.51 µM | 18.4 µM | 88.2 µM | 20.1 | > 100 | 3.42 µM | 21.3 | 3.99 µM | > 100 | 13.5 µM | > 100 | 22.2 µM | > 100 | 16.5 µM | > 100 |
| CC(C)(C)n1cc(-c2ccnc(NCCNS(=O)(=O)c3ccc(Br)cc3)c2)c(-c2cccc(O)c2)n1 | 1.72 µM | 3.82 | 2.17 | 6.07 | 2.14 µM | 4.86 µM | 0.581 µM | 2.88 µM | 2.07 | 5.32 | 1.85 µM | 3.68 | 1.55 µM | 3.59 | 1.46 µM | 4.38 | 2.29 µM | 5.67 | 1.35 µM | 4.47 |
| CN1C(=O)c2cc(Cl)nc3c(NC(=O)c4cccc(Cl)c4)c(Cl)c(NC(=O)c4cccc(Cl)c4)c1c23 | 2.69 µM | 7.96 | – | – | 2.28 µM | 5.19 µM | 2.17 µM | 5.11 µM | 2.02 | 4.05 | 1.92 µM | 3.57 | 1.7 µM | 3.3 | 1.93 µM | 3.99 | 2.45 µM | 6.08 | 1.71 µM | 3.44 |
| CCOP(=O)(OCC)/C(C#N)=C\c1cccc2ccccc12 | – | > 100 | – | > 100 | – | > 100 µM | – | > 62.8 µM | – | > 73.8 | – | > 100 | – | > 100 | – | > 100 | – | > 100 | – | > 100 |
| COc1ccccc1Cn1cc2c(c1)-c1oncc1CC2 | 2.44 µM | 29.7 | 0.545 | > 55.8 | 0.357 µM | 3.4 µM | 0.268 µM | 0.814 µM | 6.99 | > 100 | 0.307 µM | 0.888 | 3.86 µM | 97.9 | 2.01 µM | > 100 | 0.625 µM | > 100 | 4.28 µM | 42.7 |
| Cc1ccc([P+](Cc2ccc([N+](=O)[O-])cc2)(c2ccc(C)cc2)c2ccc(C)cc2)cc1 | 9.72 µM | 22.3 | 18 | 47.1 | 5.44 µM | 20.8 µM | 0.997 µM | 3.14 µM | 5.31 | 21.4 | 1.71 µM | 7.07 | 2.2 µM | 11.3 | 2.64 µM | 14.3 | 3.25 µM | 13.6 | 13.3 µM | 31.5 |
| CC(CS(=O)(=O)Cc1ccccc1)C(N)=O (stereo not drawn) | – | > 100 | – | > 100 | – | > 100 µM | – | > 100 µM | – | > 100 | – | > 100 | – | > 100 | – | > 100 | – | > 100 | – | > 100 |
| COc1c(O)c(OC)c(C(=O)/C=C/c2ccccc2)c(O)c1OC | – | > 100 | – | > 100 | – | > 100 µM | – | > 100 µM | – | > 100 | – | 51.3 | – | > 100 | – | > 100 | – | > 100 | – | – |
| N#CC1c2ccccc2-c2ccccc2N1C(=O)c1ccccc1 (stereo not drawn) | 3.53 µM | > 88.1 | – | – | 1.72 µM | 4.21 µM | 0.337 µM | – | 3.11 | > 100 | 0.748 µM | 2.47 | 3.29 µM | > 72.3 | 6.86 µM | > 100 | 4.12 µM | > 100 | 3.63 µM | > 59.4 |
| CCCCCCCCCCCCCCCC[N+]1(CC)CCCC1 | 1.18 µM | 2.61 | 1.75 | 11.3 | 0.84 µM | 2.14 µM | 0.339 µM | 1.14 µM | 1.18 | 5.95 | 0.478 µM | 1.65 | 0.315 µM | 2.25 | 0.284 µM | 1.15 | – | – | 2.79 µM | 11.6 |
| CCN(CC)CCOc1ccc(/C=C2\C[C@H]3[C@@H]4CC=C5C[C@@H](OC(C)=O)CC[C@]5(C)[C@H]4CC[C@]3(C)[C@H]2OC(C)=O)cc1OC | 9.66 µM | 18.7 | 9.21 | 18.6 | 5.84 µM | 12.2 µM | 9.57 µM | 19.5 µM | 11.3 | 31.7 | 10.3 µM | 22.1 | – | – | 7.68 µM | 21.3 | 11.8 µM | 30.1 | 11.6 µM | 27 |
| COc1ccc(C2=CC(c3cc(OC)c(OC)c(OC)c3)n3ncnc3N2)cc1 (stereo not drawn) | 0.0448 µM | > 100 | – | – | 0.0648 µM | 97.8 µM | 0.0252 µM | 0.0612 µM | 7.99 | 71 | 0.0286 µM | 0.0764 | 0.391 µM | 39.5 | 0.0536 µM | > 100 | 0.0672 µM | > 100 | 10 µM | 66.4 |

Reference: PubChem BioAssay (NCI)
